Reference: ChEMBL document CHEMBL1909046, “DrugMatrix in vitro pharmacology data”

Key:
[1] = DRUGMATRIX: GABAA, Muscimol, Central radioligand binding (ligand: [3H] Muscimol); assay type: cell membranes, Rattus norvegicus, Wistar, Brain, Membrane; details: Not Active = under 50% inhibition at 10 µM
Adenosine receptor A2a = Adenosine receptor A2a (Homo sapiens, UniProt P29274); assay: DRUGMATRIX: Adenosine A2A radioligand binding (ligand: […]); assay type: cell membranes, HEK293, Membrane; details: hek293; Not Active = under 50% inhibition at 10 µM
Adenosine receptor A2a, sequence (P29274 whole entry): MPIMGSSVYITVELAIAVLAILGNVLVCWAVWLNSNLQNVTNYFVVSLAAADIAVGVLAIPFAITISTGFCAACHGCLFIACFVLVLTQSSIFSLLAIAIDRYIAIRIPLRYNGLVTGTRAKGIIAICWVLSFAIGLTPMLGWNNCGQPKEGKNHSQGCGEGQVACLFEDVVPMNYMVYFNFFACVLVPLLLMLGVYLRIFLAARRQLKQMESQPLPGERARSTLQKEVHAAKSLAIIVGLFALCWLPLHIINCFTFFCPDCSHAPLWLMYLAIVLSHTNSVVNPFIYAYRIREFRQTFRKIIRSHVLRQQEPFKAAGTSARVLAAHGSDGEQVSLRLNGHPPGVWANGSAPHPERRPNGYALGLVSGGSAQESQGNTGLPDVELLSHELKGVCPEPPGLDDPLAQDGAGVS

Adenosine receptor A1 = target: T1, Adenosine receptor A1 (Homo sapiens, UniProt P30542); assay type: cell membranes, CHO, Membrane; details: cho;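 note: radioligand binding assay at the adenosine A1 receptor, with DPCPX serving as the labelled ligand; in other assays of this panel Not Active means under 50% inhibition at 10 µM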
T1 sequence (P30542 whole entry): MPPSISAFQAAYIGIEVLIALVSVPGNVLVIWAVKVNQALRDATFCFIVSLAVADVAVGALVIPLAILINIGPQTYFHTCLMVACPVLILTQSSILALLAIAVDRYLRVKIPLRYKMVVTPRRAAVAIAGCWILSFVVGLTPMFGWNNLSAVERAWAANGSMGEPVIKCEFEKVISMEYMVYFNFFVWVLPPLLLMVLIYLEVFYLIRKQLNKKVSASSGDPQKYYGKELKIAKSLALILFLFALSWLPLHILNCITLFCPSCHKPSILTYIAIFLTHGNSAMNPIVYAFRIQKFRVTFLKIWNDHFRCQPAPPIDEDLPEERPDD

Cytochrome P450 2E1 = Cytochrome P450 2E1 (Homo sapiens, UniProt P05181); details: bti-tn-5b1-4; note: in other assays of this panel Not Active means under 50% inhibition at 10 µM
Cytochrome P450 2E1, sequence (P05181 whole entry): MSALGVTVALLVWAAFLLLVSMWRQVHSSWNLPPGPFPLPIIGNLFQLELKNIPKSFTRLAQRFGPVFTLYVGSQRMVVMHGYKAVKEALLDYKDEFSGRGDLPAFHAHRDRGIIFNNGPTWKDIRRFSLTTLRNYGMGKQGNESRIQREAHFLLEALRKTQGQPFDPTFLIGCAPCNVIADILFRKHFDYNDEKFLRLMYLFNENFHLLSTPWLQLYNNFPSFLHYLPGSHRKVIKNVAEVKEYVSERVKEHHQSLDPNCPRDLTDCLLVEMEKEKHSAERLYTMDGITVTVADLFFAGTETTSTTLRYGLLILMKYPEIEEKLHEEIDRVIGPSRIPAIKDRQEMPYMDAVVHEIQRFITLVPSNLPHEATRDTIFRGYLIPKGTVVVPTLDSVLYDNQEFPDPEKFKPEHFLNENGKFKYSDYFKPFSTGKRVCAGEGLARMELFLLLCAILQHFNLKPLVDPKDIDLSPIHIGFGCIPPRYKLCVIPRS

[2] = DRUGMATRIX: Potassium Channel [KATP] radioligand binding (ligand: [3H] Glyburide); assay type: cell membranes, Membrane; details: hit-t15; Not Active = under 50% inhibition at 10 µM
[3] = target: cGMP-specific 3',5'-cyclic phosphodiesterase (Homo sapiens, UniProt O76074); assay: DRUGMATRIX: Phosphodiesterase PDE5 enzyme inhibition (substrate: [3H]cGMP + cGMP); assay type: tissue-based, Platelet; details: platelet; Not Active = under 50% inhibition at 10 µM
Neutrophil elastase = target: T2, Neutrophil elastase (Homo sapiens, UniProt P08246); assay type: tissue-based;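 note: inhibition of neutrophil elastase enzyme activity, measured with a p-nitroanilide-linked peptide substrate; in other assays of this panel Not Active means under 50% inhibition at 10 µM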
T2 sequence (P08246 whole entry): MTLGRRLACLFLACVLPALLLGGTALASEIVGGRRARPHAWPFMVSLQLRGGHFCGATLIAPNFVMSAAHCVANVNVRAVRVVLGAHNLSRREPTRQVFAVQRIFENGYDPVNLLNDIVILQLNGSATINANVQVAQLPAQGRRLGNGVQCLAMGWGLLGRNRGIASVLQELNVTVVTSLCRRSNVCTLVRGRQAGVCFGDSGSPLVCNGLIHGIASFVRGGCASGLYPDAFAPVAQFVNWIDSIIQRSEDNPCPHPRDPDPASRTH

C[C@H]1C[C@H]2[C@@H]3CCC4=CC(=O)C=C[C@]4(C)[C@@]3(F)[C@@H](O)C[C@]2(C)[C@@]1(O)C(=O)CO [BETAMETHASONE]
Not Active: IC50 [1] | Ki [1] | IC50 (Adenosine receptor A2a) | IC50 (Adenosine receptor A1) | IC50 (Cytochrome P450 2E1) | Ki (Cytochrome P450 2E1) | IC50 [2] | Ki [2] | IC50 [3] | IC50 (Neutrophil elastase)

CC(C)NCC(O)COc1ccc(CC(N)=O)cc1 (stereo unspecified) [ATENOLOL]
Not Active: IC50 [1] | Ki [1] | IC50 (Adenosine receptor A2a) | IC50 (Adenosine receptor A1) | IC50 (Cytochrome P450 2E1) | Ki (Cytochrome P450 2E1) | IC50 [2] | Ki [2] | IC50 [3] | IC50 (Neutrophil elastase)

O=C1c2ccccc2C(=O)C1c1ccccc1 [PHENINDIONE]
Not Active: IC50 [1] | Ki [1] | IC50 (Adenosine receptor A2a) | IC50 (Adenosine receptor A1) | IC50 (Cytochrome P450 2E1) | Ki (Cytochrome P450 2E1) | IC50 [2] | Ki [2] | IC50 [3] | IC50 (Neutrophil elastase)

CCCCCCNC(=O)n1cc(F)c(=O)[nH]c1=O [CARMOFUR]
Not Active: IC50 [1] | Ki [1] | IC50 (Adenosine receptor A2a) | IC50 (Adenosine receptor A1) | IC50 (Cytochrome P450 2E1) | Ki (Cytochrome P450 2E1) | IC50 [2] | Ki [2] | IC50 [3] | IC50 (Neutrophil elastase)

O=c1[nH]cnc2c1ncn2[C@H]1CC[C@@H](CO)O1 [DIDANOSINE]
Not Active: IC50 [1] | Ki [1] | IC50 (Adenosine receptor A2a) | IC50 (Adenosine receptor A1) | IC50 (Cytochrome P450 2E1) | Ki (Cytochrome P450 2E1) | IC50 [2] | Ki [2] | IC50 [3] | IC50 (Neutrophil elastase)

CC(=O)Nc1ccc2c(c1)Cc1ccccc1-2 [2-ACETYLAMINOFLUORENE]
Not Active: IC50 [1] | Ki [1] | IC50 (Adenosine receptor A2a) | IC50 (Adenosine receptor A1) | IC50 (Cytochrome P450 2E1) | Ki (Cytochrome P450 2E1) | IC50 [2] | Ki [2] | IC50 [3] | IC50 (Neutrophil elastase)

CC(C)(c1ccc(O)cc1)c1ccc(O)cc1 [BISPHENOL A]
Not Active: IC50 [1] | Ki [1] | IC50 (Adenosine receptor A2a) | IC50 (Adenosine receptor A1) | IC50 (Cytochrome P450 2E1) | Ki (Cytochrome P450 2E1) | IC50 [2] | Ki [2] | IC50 [3] | IC50 (Neutrophil elastase)

CO[C@H]1O[C@@H]2O[C@@]3(C)CC[C@H]4[C@H](C)CC[C@@H]([C@H]1C)[C@@]24OO3
Not Active: IC50 [1] | Ki [1] | IC50 (Adenosine receptor A2a) | IC50 (Adenosine receptor A1) | IC50 (Cytochrome P450 2E1) | Ki (Cytochrome P450 2E1) | IC50 [2] | Ki [2] | IC50 [3] | IC50 (Neutrophil elastase)

C#C[C@]1(O)CC[C@H]2[C@@H]3CCC4=CC(=O)CC[C@@H]4[C@H]3CC[C@@]21C [NORETHINDRONE]
Not Active: IC50 [1] | Ki [1] | IC50 (Adenosine receptor A2a) | IC50 (Adenosine receptor A1) | IC50 (Cytochrome P450 2E1) | Ki (Cytochrome P450 2E1) | IC50 [2] | Ki [2] | IC50 [3] | IC50 (Neutrophil elastase)

CN(Cc1cc(Br)cc(Br)c1N)C1CCCCC1 [BROMHEXINE]
Not Active: IC50 [1] | Ki [1] | IC50 (Adenosine receptor A2a) | IC50 (Adenosine receptor A1) | IC50 (Cytochrome P450 2E1) | Ki (Cytochrome P450 2E1) | IC50 [2] | Ki [2] | IC50 [3] | IC50 (Neutrophil elastase)

CC12CCC(CC1=O)C2(C)C (stereo unspecified) [CAMPHOR]
Not Active: IC50 [1] | Ki [1] | IC50 (Adenosine receptor A2a) | IC50 (Adenosine receptor A1) | IC50 (Cytochrome P450 2E1) | Ki (Cytochrome P450 2E1) | IC50 [2] | Ki [2] | IC50 [3] | IC50 (Neutrophil elastase)

C[C@@H]1[C@H](O)[C@@H](C)/C=C/C=C/C=C/C=C/C=C/C=C/C=C/[C@H](O[C@@H]2O[C@H](C)[C@@H](O)[C@H](N)[C@@H]2O)C[C@@H]2O[C@](O)(C[C@@H](O)C[C@@H](O)[C@H](O)CC[C@@H](O)C[C@@H](O)CC(=O)O[C@H]1C)C[C@H](O)[C@H]2C(=O)O [AMPHOTERICIN B]
Not Active: IC50 [1] | Ki [1] | IC50 (Adenosine receptor A2a) | IC50 (Adenosine receptor A1) | IC50 (Cytochrome P450 2E1) | Ki (Cytochrome P450 2E1) | IC50 [2] | Ki [2] | IC50 [3] | IC50 (Neutrophil elastase)

Nc1ccc(Cc2ccc(N)cc2)cc1
Not Active: IC50 [1] | Ki [1] | IC50 (Adenosine receptor A2a) | IC50 (Adenosine receptor A1) | IC50 (Cytochrome P450 2E1) | Ki (Cytochrome P450 2E1) | IC50 [2] | Ki [2] | IC50 [3] | IC50 (Neutrophil elastase)

CCN(CCO)CCCC(C)Nc1ccnc2cc(Cl)ccc12 (stereo unspecified) [HYDROXYCHLOROQUINE]
Not Active: IC50 [1] | Ki [1] | IC50 (Adenosine receptor A2a) | IC50 (Adenosine receptor A1) | IC50 (Cytochrome P450 2E1) | Ki (Cytochrome P450 2E1) | IC50 [2] | Ki [2] | IC50 [3] | IC50 (Neutrophil elastase)

O=C(O)COC(=O)Cc1ccccc1Nc1c(Cl)cccc1Cl [ACECLOFENAC]
Not Active: IC50 [1] | Ki [1] | IC50 (Adenosine receptor A2a) | IC50 (Adenosine receptor A1) | IC50 (Cytochrome P450 2E1) | Ki (Cytochrome P450 2E1) | IC50 [2] | Ki [2] | IC50 [3] | IC50 (Neutrophil elastase)

O=C(O)CCc1nc(-c2ccccc2)c(-c2ccccc2)o1 [OXAPROZIN]
Not Active: IC50 [1] | Ki [1] | IC50 (Adenosine receptor A2a) | IC50 (Adenosine receptor A1) | IC50 (Cytochrome P450 2E1) | Ki (Cytochrome P450 2E1) | IC50 [2] | Ki [2] | IC50 [3] | IC50 (Neutrophil elastase)

C=CCN1CC[C@]23c4c5ccc(O)c4O[C@H]2/C(=N/N=C2\CC[C@@]4(O)[C@H]6Cc7ccc(O)c8c7[C@@]4(CCN6CC=C)[C@H]2O8)CC[C@@]3(O)[C@H]1C5 [NALOXONAZINE]
Not Active: IC50 [1] | Ki [1] | IC50 (Adenosine receptor A2a) | IC50 (Adenosine receptor A1) | IC50 (Cytochrome P450 2E1) | Ki (Cytochrome P450 2E1) | IC50 [2] | Ki [2] | IC50 [3] | IC50 (Neutrophil elastase)

O=C(O)CO [GLYCOLIC ACID]
Not Active: IC50 [1] | Ki [1] | IC50 (Adenosine receptor A2a) | IC50 (Adenosine receptor A1) | IC50 (Cytochrome P450 2E1) | Ki (Cytochrome P450 2E1) | IC50 [2] | Ki [2] | IC50 [3] | IC50 (Neutrophil elastase)

COC(=O)Nc1nc2ccc(Sc3ccccc3)cc2[nH]1 [FENBENDAZOLE]
Not Active: IC50 [1] | Ki [1] | IC50 (Adenosine receptor A2a) | IC50 (Adenosine receptor A1) | IC50 (Cytochrome P450 2E1) | Ki (Cytochrome P450 2E1) | IC50 [2] | Ki [2] | IC50 [3] | IC50 (Neutrophil elastase)

CC12CCC(CC1)C(C)(C)O2 [EUCALYPTOL]
Not Active: IC50 [1] | Ki [1] | IC50 (Adenosine receptor A2a) | IC50 (Adenosine receptor A1) | IC50 (Cytochrome P450 2E1) | Ki (Cytochrome P450 2E1) | IC50 [2] | Ki [2] | IC50 [3] | IC50 (Neutrophil elastase)

O=C(Nc1ccc(Cl)c(Cl)c1)c1cc(Cl)cc(Cl)c1O [3,3',4',5-TETRACHLOROSALICYLANILIDE]
Not Active: IC50 [1] | Ki [1] | IC50 (Adenosine receptor A2a) | IC50 (Adenosine receptor A1) | IC50 (Cytochrome P450 2E1) | Ki (Cytochrome P450 2E1) | IC50 [2] | Ki [2] | IC50 [3] | IC50 (Neutrophil elastase)

Cc1ccnc2c1NC(=O)c1cccnc1N2C1CC1 [NEVIRAPINE]
Not Active: IC50 [1] | Ki [1] | IC50 (Adenosine receptor A2a) | IC50 (Adenosine receptor A1) | IC50 (Cytochrome P450 2E1) | Ki (Cytochrome P450 2E1) | IC50 [2] | Ki [2] | IC50 [3] | IC50 (Neutrophil elastase)

O=C1CN(/N=C/c2ccc([N+](=O)[O-])o2)C(=O)N1 [NITROFURANTOIN]
Not Active: IC50 [1] | Ki [1] | IC50 (Adenosine receptor A2a) | IC50 (Adenosine receptor A1) | IC50 (Cytochrome P450 2E1) | Ki (Cytochrome P450 2E1) | IC50 [2] | Ki [2] | IC50 [3] | IC50 (Neutrophil elastase)

O=c1[nH]c2ccccc2c2ccccc12
Not Active: IC50 [1] | Ki [1] | IC50 (Adenosine receptor A2a) | IC50 (Adenosine receptor A1) | IC50 (Cytochrome P450 2E1) | Ki (Cytochrome P450 2E1) | IC50 [2] | Ki [2] | IC50 [3] | IC50 (Neutrophil elastase)

NC(N)=Nc1nc(CSCCC(N)=NS(N)(=O)=O)cs1 [FAMOTIDINE]
Not Active: IC50 [1] | Ki [1] | IC50 (Adenosine receptor A2a) | IC50 (Adenosine receptor A1) | IC50 (Cytochrome P450 2E1) | Ki (Cytochrome P450 2E1) | IC50 [3] | IC50 (Neutrophil elastase)

O=C(O)CNCP(=O)(O)O [GLYPHOSATE]
Not Active: IC50 [1] | Ki [1] | IC50 (Adenosine receptor A2a) | IC50 (Adenosine receptor A1) | IC50 [2] | Ki [2] | IC50 [3] | IC50 (Neutrophil elastase)
